Reference: patent US12552783B2, “Modulators of proteolysis and associated methods of use” (Arvinas Operations, Inc., priority 2018, dated 2026)

Biological target: KRas (Homo sapiens, UniProt P01116, G12C)
Assay: KRas degradation in NCI-H2030 cells by Western blot, normalized to GAPDH (data of Table 14)
Assay type: cell-based
Set-up: host or cells: NCI-H2030
Conditions: for Dmax: NCI-H2030
Protocol: Cell Lines, Antibodies, and Reagents. NCI-H2030 (CRL-5914) and SW1573 (CRL-2170) cells were purchased from ATCC. Both cell lines are homozygous for the G12C mutation in KRas. NCI-H2030 cells were cultured in RPMI-1640 medium containing 1% penicillin-streptomycin and 10% fetal bovine serum (FBS). SW1573 cells were cultured in DMEM containing 1% penicillin-streptomycin and 10% FBS. The KRas detection antibody (Cat. No. LS-C175665) was purchased from LifeSpan Biosciences and was used at a dilution of 1:2000. GAPDH was detected using an antibody purchased from Cell Signaling Technology (Cat. No. 5174) and was diluted 1:3000. Secondary anti-mouse and anti-rabbit detection antibodies were purchased from Cell Signaling Technology (Cat. Nos. 7076 and 7074, respectively).
Compound Treatment and Western Blotting of the Data of Table 14. Either NCI-H2030 or SW1573 cells were plated in 12-well plates and allowed to adhere overnight at 37° C. in an incubator containing 5% CO2. The following day, the medium was replaced with the appropriate medium lacking FBS to induce starvation. Cells were returned to the incubator for an additional 24 hours following media exchange. […] Cells were treated with VHL-based compounds for 24 hours and all other compounds for 72 hours. Following treatment, cells were lysed in RIPA buffer (Thermo Fisher Cat. No. 89900) containing phosphatase (Thermo Fisher Cat. No. 1861277) and protease (Thermo Fisher Cat. No. 78429) inhibitor cocktails. Lysates were cleared at 13,000 rpm for 15 minutes and supernatants were assayed for total protein concentration using the Pierce BCA assay system (Thermo Fisher Cat. No. 23225). For each sample, 10 μg total protein was resolved on a 12% Bis-Tris gel and then transferred to a nitrocellulose membrane. After blocking in 3% BSA in TBST (Tris-buffered Saline with 0.1% Tween-20) for 1 hour at room temperature, membranes were probed with the primary antibody (LS Bio Cat. No. LS-C175665) overnight at 4° C. After incubation with the secondary antibody, the following day membranes were visualized using the SuperSignal™ West Femto substrate (Thermo Fisher Cat. No. 34095). The KRas signal in each lane was normalized to GAPDH and percent degradation was either estimated as less than 25% by visual inspection (C in Table 13) or quantitated relative to the DMSO control lane using BIO-RAD Image Lab 5.2.1, and all data was plotted using GraphPad PRISM 6.07.
DC50 is the half-maximal degradation concentration—i.e., the concentration at which 50% degradation is observed. DMax is the maximum degradation efficacy is achieved—i.e., the maximal degradation observed) degradation data.

Structure (SMILES)	Percent Degradation at Indicated Concentration (μM) (H2030, 3 μM)	Percent Degradation at Indicated Concentration (μM) (H2030, 0.3 μM)	Percent Degradation at Indicated Concentration (μM) (H2030, 1 μM)	Dmax	Percent Degradation at Indicated Concentration (μM) (H2030 cells, 3 μM)	Percent Degradation at Indicated Concentration (μM) (H2030 cells, 0.3 μM)	Percent Degradation at Indicated Concentration (μM) (H2030 cells, 1 μM)	Dmax (H2030 cells)
Cc1ncsc1-c1ccc([C@H](C)NC(=O)[C@@H]2C[C@@H](O)CN2C(=O)[C@@H](NC(=O)COCCOCCN(C)C(=O)CCNc2nc(N3CCN(C(=O)C(O)O)CC3)c3cc(Cl)c(-c4c(O)cccc4F)c(F)c3n2)C(C)(C)C)cc1 (atropisomer, axis not shown) [compound 236, (2S,4R)-1-((S)-2-(tert-butyl)-15-(((S)-6-chloro-4-(4-(2,2-dihydroxyacetyl)piperazin-1-yl)-8-fluoro-7-(2-fluoro-6-hydroxyphenyl)quinazolin-2-yl)amino)-12-methyl-4,13-dioxo-6,9-dioxa-3,12-diazapentadecanoyl)-4-hydroxy-N-((S)-1-(4-(4-methylthiazol-5-yl)phenyl)ethyl)pyrrolidine-2-carboxamide]	C (Percent Degradation: C ≤ 35)							
Cc1ncsc1-c1ccc([C@H](C)NC(=O)[C@@H]2C[C@@H](O)CN2C(=O)[C@@H](NC(=O)COCCOCCN(C)C(=O)CCNc2nc(N3CCN(C(=O)C(O)O)CC3)c3cc(Cl)c(-c4c(O)cccc4F)c(F)c3n2)C(C)(C)C)cc1 (atropisomer, axis not shown) [compound 237, (2S,4R)-1-((S)-2-(tert-butyl)-15-(((R)-6-chloro-4-(4-(2,2-dihydroxyacetyl)piperazin-1-yl)-8-fluoro-7-(2-fluoro-6-hydroxyphenyl)quinazolin-2-yl)amino)-12-methyl-4,13-dioxo-6,9-dioxa-3,12-diazapentadecanoyl)-4-hydroxy-N-((S)-1-(4-(4-methylthiazol-5-yl)phenyl)ethyl)pyrrolidine-2-carboxamide]	C (Percent Degradation: C ≤ 35)	C (Percent Degradation: C ≤ 35)	C (Percent Degradation: C ≤ 35)	≤ 35%				
Cc1ncsc1-c1ccc([C@H](C)NC(=O)[C@@H]2C[C@@H](O)CN2C(=O)[C@@H](NC(=O)COCCOCCOCCN(C)C(=O)CCNc2nc(N3CCN(C(=O)C(O)O)CC3)c3cc(Cl)c(-c4c(O)cccc4F)c(F)c3n2)C(C)(C)C)cc1 (atropisomer, axis not shown) [compound 238, (2S,4R)-1-((S)-2-(tert-butyl)-18-((6-chloro-4-(4-(2,2-dihydroxyacetyl)piperazin-1-yl)-8-fluoro-7-((S)-2-fluoro-6-hydroxyphenyl)quinazolin-2-yl)amino)-15-methyl-4,16-dioxo-6,9,12-trioxa-3,15-diazaoctadecanoyl)-4-hydroxy-N-((S)-1-(4-(4-methylthiazol-5-yl)phenyl)ethyl)pyrrolidine-2-carboxamide]					C (Percent Degradation: C ≤ 35)			
Cc1ncsc1-c1ccc([C@H](C)NC(=O)[C@@H]2C[C@@H](O)CN2C(=O)[C@@H](NC(=O)COCCOCCOCCN(C)C(=O)CCNc2nc(N3CCN(C(=O)C(O)O)CC3)c3cc(Cl)c(-c4c(O)cccc4F)c(F)c3n2)C(C)(C)C)cc1 (atropisomer, axis not shown) [compound 239, (2S4R)-1-((S)-2-(tert-butyl)-18-((6-chloro-4-(4-(2,2-dihydroxyacetyl)piperazin-1-yl)-8-fluoro-7-((R)-2-fluoro-6-hydroxyphenyl)quinazolin-2-yl)amino)-15-methyl-4,16-dioxo-6,9,12-trioxa-3,15-diazaoctadecanoyl)-4-hydroxy-N-((S)-1-(4-(4-methylthiazol-5-yl)phenyl)ethyl)pyrrolidine-2-carboxamide,]					C (Percent Degradation: C ≤ 35)	C (Percent Degradation: C ≤ 35)	C (Percent Degradation: C ≤ 35)	≤ 35%
Cc1ncsc1-c1ccc([C@H](C)NC(=O)[C@@H]2C[C@@H](O)CN2C(=O)[C@@H](NC(=O)COCCOCCOCCOCCN(C)C(=O)CCNc2nc(N3CCN(C(=O)C(O)O)CC3)c3cc(Cl)c(-c4c(O)cccc4F)c(F)c3n2)C(C)(C)C)cc1 (atropisomer, axis not shown) [compound 240, (2S,4R)-1-((S)-2-(tert-butyl)-21-(((S)-6-chloro-4-(4-(2,2-dihydroxyacetyl)piperazin-1-yl)-8-fluoro-7-(2-fluoro-6-hydroxyphenyl)quinazolin-2-yl)amino)-18-methyl-4,19-dioxo-6,9,12,15-tetraoxa-3,18-diazahenicosanoyl)-4-hydroxy-N-((S)-1-(4-(4-methylthiazol-5-yl)phenyl)ethyl)pyrrolidine-2-carboxamide]					C (Percent Degradation: C ≤ 35)	C (Percent Degradation: C ≤ 35)	C (Percent Degradation: C ≤ 35)	
C=CC(=O)N1CCN(c2nc(NCCC(=O)N(C)CCOCCOc3ccc(-c4csc([C@@H]5CCCN5C(=O)[C@@H](NC(=O)[C@H](C)NC)C5CCCCC5)n4)c4ccccc34)nc3c(F)c(-c4c(O)cccc4F)c(Cl)cc23)CC1 (atropisomer, axis not shown) [compound 276, 3-((4-(4-acryloylpiperazin-1-yl)-6-chloro-8-fluoro-7-((S)-2-fluoro-6-hydroxyphenyl)quinazolin-2-yl)amino)-N-(2-(2-((4-(2-((S)-1-((S)-2-cyclohexyl-2-((S)-2-(methylamino)propan-amido)acetyl)pyrrolidin-2-yl)thiazol-4-yl)naphthalen-1-yl)oxy)ethoxy)ethyl)-N-methylpropanamide]	C (Percent Degradation: C ≤ 35)	C (Percent Degradation: C ≤ 35)	C (Percent Degradation: C ≤ 35)	≤ 35%				
C=CC(=O)N1CCN(c2nc(NCCC(=O)N(C)CCOCCOCCOCCOc3ccc(-c4csc([C@@H]5CCCN5C(=O)[C@@H](NC(=O)[C@H](C)NC)C5CCCCC5)n4)c4ccccc34)nc3c(F)c(-c4c(O)cccc4F)c(Cl)cc23)CC1 (atropisomer, axis not shown) [compound 278, 3-((4-(4-acryloylpiperazin-1-yl)-6-chloro-8-fluoro-7-((S)-2-fluoro-6-hydroxyphenyl)quinazolin-2-yl)amino)-N-(2-(2-(2-(2-((4-(2-((S)-1-((S)-2-cyclohexyl-2-((S)-2-(methylamino)propan-amido)acetyl)pyrrolidin-2-yl)thiazol-4-yl)naphthalen-1-yl)oxy)ethoxy)ethoxy)eth-oxy)ethyl)-N-methylpropanamide]	C (Percent Degradation: C ≤ 35)	C (Percent Degradation: C ≤ 35)	C (Percent Degradation: C ≤ 35)	≤ 35%				
C=CC(=O)N1CCN(c2nc(NCCC(=O)N(C)CCOCCNC(=O)c3ccc(NC(=O)[C@@H]4N[C@@H](CC(C)(C)C)[C@](C#N)(c5ccc(Cl)cc5F)[C@H]4c4cccc(Cl)c4F)c(OC)c3)nc3c(F)c(-c4c(O)cccc4F)c(Cl)cc23)CC1 (atropisomer, axis not shown) [compound 307, (2R,3S,4R,5S)-N-(4-((2-(2-(3-((4-(4-acryloylpiperazin-1-yl)-6-chloro-8-fluoro-7-((S)-2-fluoro-6-hydroxyphenyl)quinazolin-2-yl)amino)-N-methylpropanamido)ethoxy)eth-yl)carbamoyl)-2-methoxyphenyl)-3-(3-chloro-2-fluorophenyl)-4-(4-chloro-2-fluorophenyl)-4-cyano-5-neopentylpyrrolidine-2-carboxamide]	C (Percent Degradation: C ≤ 35)	C (Percent Degradation: C ≤ 35)	C (Percent Degradation: C ≤ 35)	≤ 35%				
